Several values for one entry are separate records, joined by “and”; a condition that tells them apart may be missing. Equal entries are not always repeated. Non-standard residues stand in square brackets, D forms with d. Residues, ends and D or L forms follow the SMILES beside them. *: point of attachment. dPhe(2,4-Cl2) = N[C@H](Cc1ccc(Cl)cc1Cl)C(=O)O; X7 = c1ccc2c(C[C@H](N*)c3nn[nH]n3)c[nH]c2c1; dPhe(3-Cl) = N[C@H](Cc1cccc(Cl)c1)C(=O)O; Ala(2-furyl) = N[C@@H](Cc1ccco1)C(=O)O; Phe(4-Me) = Cc1ccc(C[C@H](N)C(=O)O)cc1; Pro(4,4-F2) = O=C(O)[C@@H]1CC(F)(F)CN1; dAla(2-furyl) = N[C@H](Cc1ccco1)C(=O)O; dPhe(4-F) = N[C@H](Cc1ccc(F)cc1)C(=O)O; dPhe(4-I) = N[C@H](Cc1ccc(I)cc1)C(=O)O; Arg(Me) = CNC(=N)NCCC[C@H](N)C(=O)O; Hyp = O=C(O)[C@@H]1C[C@@H](O)CN1; Tic = O=C(O)[C@@H]1Cc2ccccc2CN1; 2Thi = N[C@@H](Cc1cccs1)C(=O)O; NMeL = CN[C@@H](CC(C)C)C(=O)O; Pip = O=C(O)[C@@H]1CCCCN1; dPip = O=C(O)[C@H]1CCCCN1; Ac6c = NC1(C(=O)O)CCCCC1; Aze = O=C(O)[C@@H]1CCN1; azaGly = NNC(=O)O; βAla = NCCC(=O)O
Target: T1, human kiss1 receptor (GPR54) (Homo sapiens, UniProt Q969F8)
T1 construct: host or cells: NFAT-bla CHO-K1 cells (Chinese hamster ovary), purchased recombinant cell line
T1 sequence (Q969F8 whole entry): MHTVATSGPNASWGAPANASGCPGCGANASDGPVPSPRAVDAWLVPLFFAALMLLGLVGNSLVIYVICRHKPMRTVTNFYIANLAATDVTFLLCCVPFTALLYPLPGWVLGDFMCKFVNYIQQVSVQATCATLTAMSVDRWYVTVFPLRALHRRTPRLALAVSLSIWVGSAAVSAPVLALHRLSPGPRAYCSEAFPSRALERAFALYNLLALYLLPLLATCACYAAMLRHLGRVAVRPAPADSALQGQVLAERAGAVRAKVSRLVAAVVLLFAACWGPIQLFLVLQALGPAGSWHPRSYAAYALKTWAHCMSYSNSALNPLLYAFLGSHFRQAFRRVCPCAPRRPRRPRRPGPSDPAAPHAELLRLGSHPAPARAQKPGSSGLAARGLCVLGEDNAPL
Experiment: Kiss1 receptor (GPR54) binding activity of agonists, FRET detection in NFAT-bla CHO-K1 cells
Type: cell-based
Conditions: GPR54; measured according to the method of effect Embodiment 1; preliminary data; read-out: Preliminary measurement data (GPR54) EC50

| Structure (SMILES) | EC50 |
| --- | --- |
| CNC(=N)NCCC[C@H](NC(=O)C(CC(C)C)C(=O)NCNC(=O)[C@H](Cc1ccccc1)NC(=O)[C@@H](NC(=O)[C@H](CC(N)=O)NC(=O)[C@@H]1C[C@@H](O)CN1C(=O)[C@@H](Cc1ccc(O)cc1)NC(C)=O)[C@@H](C)O)C(=O)N[C@@H](Cc1c[nH]c2ccccc12)C(N)=O (single isomer, unassigned) [YA-303, Ac-(D-Tyr)-Hyp-Asn-Thr-Phe-ψ(NHCO)Gly-Leu-Arg(Me)-Trp-NH2] | 0.01 nM |
| CNC(=N)NCCC[C@H](NC(=O)[C@H](CC(C)C)N(C)C(=O)CCNC(=O)[C@H](Cc1ccccc1)NC(=O)[C@@H](NC(=O)[C@H](CC(N)=O)NC(=O)[C@@H]1C[C@@H](O)CN1C(=O)[C@@H](Cc1ccc(O)cc1)NC(C)=O)[C@@H](C)O)C(=O)N[C@@H](Cc1c[nH]c2ccccc12)C(N)=O [YA-82, Ac-(D-Tyr)-Hyp-Asn-Thr-Phe-BetaAla-(NMe-Leu)-Arg(Me)-Trp-NH2] (Ac-[dY][Hyp]NTF[βAla][NMeL][Arg(Me)]W-NH2) | 2.79 nM |
| CNC(=N)NCCC[C@H](NC(=O)[C@H](CC(C)C)NC(=O)C1(NC(=O)[C@H](Cc2ccccc2)NC(=O)[C@@H](NC(=O)[C@H](CC(N)=O)NC(=O)[C@H]2CCCCN2C(=O)[C@@H](Cc2ccc(O)cc2)NC(C)=O)[C@@H](C)O)CCCCC1)C(=O)N[C@@H](Cc1c[nH]c2ccccc12)C(N)=O [YA-229, Ac-(D-Tyr)-(R-Pip)-Asn-Thr-Phe-A6c-Leu-Arg(Me)-Trp-NH2] (Ac-[dY][dPip]NTF[Ac6c]L[Arg(Me)]W-NH2) | 20.3 nM |
| CNC(=N)NCCC[C@H](NC(=O)[C@H](CC(C)C)NC(=O)C1(NC(=O)[C@H](Cc2ccccc2)NC(=O)[C@@H](NC(=O)[C@H](CC(N)=O)NC(=O)[C@@H]2CC(F)(F)CN2C(=O)[C@@H](Cc2ccco2)NC(C)=O)[C@@H](C)O)CCCCC1)C(=O)N1Cc2ccccc2C[C@H]1C(N)=O [YA-224, Ac-[3-(2-furyl)-D-Ala]-DifluoroPro-Asn-Thr-Phe-A6C-Leu-Arg(Me)-Tic-NH2] (Ac-[dAla(2-furyl)][Pro(4,4-F2)]NTF[Ac6c]L[Arg(Me)][Tic]-NH2) | 6.5 nM |
| CNC(=N)NCCC[C@H](NC(=O)[C@H](CC(C)C)NC(=O)NNC(=O)[C@H](Cc1ccccc1)NC(=O)[C@@H](NC(=O)[C@H](CC(N)=O)NC(=O)[C@@H]1C[C@@H](O)CN1C(=O)[C@@H](Cc1ccc(O)cc1)NC(C)=O)[C@@H](C)O)C(=O)N[C@H](Cc1ccco1)C(N)=O [YA-169, Ac-(D-Tyr)-Hyp-Asn-Thr-Phe-azaGly-Leu-Arg(Me)-[3-(2-furyl)-D-Ala]-NH2] (Ac-[dY][Hyp]NTF[azaGly]L[Arg(Me)][dAla(2-furyl)]-NH2) | 6.53 nM |
| CNC(=N)NCCC[C@H](NC(=O)[C@H](CC(C)C)NC(=O)NNC(=O)[C@H](Cc1ccccc1)NC(=O)[C@H](Cc1ccco1)NC(=O)[C@H](CC(N)=O)NC(=O)[C@@H]1C[C@@H](O)CN1C(=O)[C@@H](Cc1ccc(O)cc1)NC(C)=O)C(=O)N[C@@H](Cc1c[nH]c2ccccc12)C(N)=O [YA-143, Ac-D-Tyr-Hyp-Asn-2Fua-Phe-azaGly-Leu-Arg(Me)-Trp-NH2] (Ac-[dY][Hyp]N[Ala(2-furyl)]F[azaGly]L[Arg(Me)]W-NH2) | 0.023 nM |
| CNC(=N)NCCC[C@H](NC(=O)[C@H](CC(C)C)NC(=O)[C@@H]1CCN1C(=O)[C@H](Cc1ccccc1)NC(=O)[C@@H](NC(=O)[C@H](CC(N)=O)NC(=O)[C@@H]1CCCCN1C(=O)[C@@H](Cc1ccc(F)cc1)NC(C)=O)[C@@H](C)O)C(=O)N[C@@H](Cc1c[nH]c2ccccc12)C(N)=O [YA-211, Ac-[D-Phe(4-F)]-(S-Pip)-Asn-Thr-Phe-Aze-Leu-Arg(Me)-Trp-NH2] (Ac-[dPhe(4-F)][Pip]NTF[Aze]L[Arg(Me)]W-NH2) | 1.13 nM |
| CNC(=N)NCCC[C@H](NC(=O)[C@H](CC(C)C)NC(=O)NNC(=O)[C@H](Cc1ccccc1)NC(=O)[C@H](Cc1cccs1)NC(=O)[C@H](CC(N)=O)NC(=O)[C@@H]1C[C@@H](O)CN1C(=O)[C@@H](Cc1ccc(O)cc1)NC(C)=O)C(=O)N[C@@H](Cc1c[nH]c2ccccc12)C(N)=O [YA-144, Ac-(D-Tyr)-Hyp-Asn-Thi-Phe-azaGly-Leu-Arg(Me)-Trp-NH2] (Ac-[dY][Hyp]N[2Thi]F[azaGly]L[Arg(Me)]W-NH2) | 0.201 nM |
| CNC(=N)NCCC[C@H](NC(=O)[C@H](CC(C)C)NC(=O)NNC(=O)[C@H](Cc1ccccc1)NC(=O)[C@@H](NC(=O)[C@H](CC(N)=O)NC(=O)C1(NC(=O)[C@@H](Cc2ccc(Cl)cc2Cl)NC(C)=O)CCCCC1)[C@@H](C)O)C(=O)N[C@@H](Cc1c[nH]c2ccccc12)C(N)=O [YA-260, Ac-[D-Phe(2,4-DiCl)]-A6c-Asn-Thr-Phe-azaGly-Leu-Arg(Me)-Trp-NH2] (Ac-[dPhe(2,4-Cl2)][Ac6c]NTF[azaGly]L[Arg(Me)]W-NH2) | 0.027 nM |
| CNC(=N)NCCC[C@H](NC(=O)[C@H](CC(C)C)N(C)C(=O)CCNC(=O)[C@H](Cc1ccccc1)NC(=O)[C@@H](NC(=O)[C@H](CC(N)=O)NC(=O)[C@@H]1CC(F)(F)CN1C(=O)[C@@H](Cc1ccco1)NC(C)=O)[C@@H](C)O)C(=O)N[C@@H](Cc1c[nH]c2ccccc12)C(N)=O [YA-186, Ac-[3-(2-Furyl)-D-Ala]-(DiFluorPro)-Asn-Thr-Phe-BetaAla-NMeLeu-Arg(Me)-Trp-NH2] (Ac-[dAla(2-furyl)][Pro(4,4-F2)]NTF[βAla][NMeL][Arg(Me)]W-NH2) | 3.89 nM |
| CNC(=N)NCCC[C@H](NC(=O)[C@H](CC(C)C)NC(=O)C1(NC(=O)[C@H](Cc2ccccc2)NC(=O)[C@@H](NC(=O)[C@H](CC(N)=O)NC(=O)[C@H](Cc2c[nH]c3ccccc23)NC(=O)[C@H](Cc2cccs2)NC(=O)[C@@H](Cc2ccc(Cl)cc2Cl)NC(C)=O)[C@@H](C)O)CCCCC1)C(=O)N[C@@H](Cc1c[nH]c2ccccc12)C(N)=O [YA-207, Ac-[D-Phe(2,4-DiCl)]-Thi-Trp-Asn-Thr-Phe-A6c-Leu-Arg(Me)-Trp-NH2] (Ac-[dPhe(2,4-Cl2)][2Thi]WNTF[Ac6c]L[Arg(Me)]W-NH2) | 90 nM |

Further lines, results first:

| EC50 | Structure (SMILES) |
| --- | --- |
| 0.032 nM | CNC(=N)NCCC[C@H](NC(=O)[C@H](CC(C)C)NC(=O)NNC(=O)[C@H](Cc1ccccc1)NC(=O)[C@@H](NC(=O)[C@H](CC(N)=O)NC(=O)[C@@H]1C[C@@H](O)CN1C(=O)[C@@H](Cc1ccc(I)cc1)NC(C)=O)[C@@H](C)O)C(=O)N[C@@H](Cc1c[nH]c2ccccc12)C(N)=O [YA-358, Ac-(D-Phe(4-I))-Hyp-Asn-Thr-Phe-azaGly-Leu-Arg(Me)-Trp-NH2] (Ac-[dPhe(4-I)][Hyp]NTF[azaGly]L[Arg(Me)]W-NH2) |
| 0.122 nM | CNC(=N)NCCC[C@H](NC(=O)[C@H](CC(C)C)NC(=O)NNC(=O)[C@H](Cc1ccccc1)NC(=O)[C@@H](NC(=O)[C@H](CC(N)=O)NC(=O)[C@@H]1C[C@@H](O)CN1C(=O)[C@@H](Cc1cccc(Cl)c1)NC(C)=O)[C@@H](C)O)C(=O)N[C@@H](Cc1c[nH]c2ccccc12)C(N)=O [YA-215, Ac-[D-Phe(3-Cl)]-Hyp-Asn-Thr-Phe-azaGly-Leu-Arg(Me)-Trp-NH2] (Ac-[dPhe(3-Cl)][Hyp]NTF[azaGly]L[Arg(Me)]W-NH2) |
| 0.007 nM | CNC(=N)NCCC[C@H](NC(=O)[C@H](CC(C)C)NC(=O)NNC(=O)[C@H](Cc1ccccc1)NC(=O)[C@@H](NC(=O)[C@H](CC(N)=O)NC(=O)[C@@H]1CC(F)(F)CN1C(=O)[C@@H](Cc1ccc(O)cc1)NC(C)=O)[C@@H](C)O)C(=O)N[C@@H](Cc1c[nH]c2ccccc12)C(N)=O [YA-80, Ac-D-Tyr-Pro(diF)-Asn-Thr-Phe-azaGly-Leu-Arg(Me)-Trp-NH2] (Ac-[dY][Pro(4,4-F2)]NTF[azaGly]L[Arg(Me)]W-NH2) |
| 0.921 nM | CNC(=N)NCCC[C@H](NC(=O)[C@H](CC(C)C)NC(=O)NNC(=O)[C@H](Cc1ccccc1)NC(=O)[C@@H](NC(=O)[C@H](CC(N)=O)NC(=O)[C@@H]1C[C@@H](O)CN1C(=O)[C@H](Cc1ccc(C)cc1)NC(C)=O)[C@@H](C)O)C(=O)N[C@@H](Cc1c[nH]c2ccccc12)C(N)=O [YA-74, Ac-Phe(4-Me)-Hyp-Asn-Thr-Phe-azaGly-Leu-Arg(Me)-Trp-NH2] (Ac-[Phe(4-Me)][Hyp]NTF[azaGly]L[Arg(Me)]W-NH2) |
| 0.015 nM | CNC(=N)NCCC[C@H](NC(=O)[C@H](CC(C)C)NC(=O)NNC(=O)[C@H](Cc1ccccc1)NC(=O)[C@@H](NC(=O)[C@H](CC(N)=O)NC(=O)[C@@H]1C[C@@H](O)CN1C(=O)[C@@H](Cc1ccc(Cl)cc1Cl)NC(C)=O)[C@@H](C)O)C(=O)N[C@@H](Cc1c[nH]c2ccccc12)C(N)=O [YA-42, Ac-[D-Phe(2,4-DiCl)]-Hyp-Asn-Thr-Phe-azaGly-Leu-Arg(Me)-Trp-NH2] (Ac-[dPhe(2,4-Cl2)][Hyp]NTF[azaGly]L[Arg(Me)]W-NH2) |

Same assay, conditions: human kiss1 receptor (GPR54), NFAT-bla CHO-K1 cells, FRET; preliminary data; method of effect Embodiment 1; read-out: Preliminary measurement data (GPR54) EC50

| Structure (SMILES) | EC50 |
| --- | --- |
| CNC(=N)NCCC[C@H](NC(=O)[C@H](CC(C)C)NC(=O)NNC(=O)[C@H](Cc1ccccc1)NC(=O)[C@@H](NC(=O)[C@H](CC(N)=O)NC(=O)[C@@H]1C[C@@H](O)CN1C(=O)[C@@H](Cc1ccc(O)cc1)NC(C)=O)[C@@H](C)O)C(=O)N[C@@H](Cc1c[nH]c2ccccc12)c1nn[nH]n1 [YA-250, Ac-(D-Tyr)-Hyp-Asn-Thr-Phe-azaG-Leu-Arg(Me)-Trp-2H-tetrazol-5-yl] (Ac-[dY][Hyp]NTF[azaGly]L[Arg(Me)]-X7) | 7.5 nM and 15.4 nM |
| CNC(=N)NCCC[C@H](NC(=O)[C@H](CC(C)C)NC(=O)C1(NC(=O)[C@H](Cc2ccccc2)NC(=O)[C@@H](NC(=O)[C@H](CC(N)=O)NC(=O)[C@@H]2CC(F)(F)CN2C(=O)[C@@H](Cc2ccc(Cl)cc2Cl)NC(C)=O)[C@@H](C)O)CCCCC1)C(=O)N[C@@H](Cc1c[nH]c2ccccc12)C(=O)NC [YA-253, Ac-D-Phe(2,4-DiCl)-DiFluorPro-Asn-Thr-Phe-A6c-Leu-Arg(Me)-Trp-NHMe] (Ac-[dPhe(2,4-Cl2)][Pro(4,4-F2)]NTF[Ac6c]L[Arg(Me)]W-NHMe) | 97.8 nM |
| CNC(=N)NCCC[C@H](NC(=O)[C@H](CC(C)C)NC(=O)C1(NC(=O)[C@H](Cc2ccccc2)NC(=O)[C@@H](NC(=O)[C@H](CC(N)=O)NC(=O)C2(NC(=O)[C@@H](Cc3ccc(F)cc3)NC(C)=O)CCCCC2)[C@@H](C)O)CCCCC1)C(=O)N[C@@H](Cc1c[nH]c2ccccc12)C(N)=O [YA-244, Ac-[D-Phe(4-F)]-A6c-Asn-Thr-Phe-A6c-Leu-Arg(Me)-Trp-NH2] (Ac-[dPhe(4-F)][Ac6c]NTF[Ac6c]L[Arg(Me)]W-NH2; C-terminus assumed) | 1.17 nM |
